# Results: patent US20030013099A1, “Genes regulated by DNA methylation in colon tumors” (priority 2001, published 2003)
# What was measured:
# MIN mouse = conditions: Aza treatment in combination with a genetic reduction in DNA methyltransferase I activity; cited from earlier work
# HT29 cells = experiment: microarray differential expression, HT29 cells treated with 500 nM Aza; type: cell-based, human; conditions: vs untreated, log base 2, negative = upregulation
# Description: HT29 cells were derived from a Grade II adenocarcinoma of the colon obtained from a person. HCT116 cells are a subpopulation of malignant cells isolated from a primary cell culture of a single human colonic carcinoma (Brattain et al. (1981) Cancer Res 41:1751-6). HMEC cells are a primary human epithelial cell line derived from the breast tissue of a normal donor. HT29 and HCT116 colorectal carcinoma cells (American Type Culture Collection, Manassas Va.) were cultured in McCoy's medium supplemented with 10% fetal bovine serum (Invitrogen) at 37° C. and 5% CO2. Treated cells were exposed to 500 nM 5-aza-2-deoxycytidine (Aza; Sigma-Aldrich) 24 hours after passage in complete culture medium. Control cultures were treated in parallel with phosphate buffered saline vehicle. After twenty-four hours, culture medium was replaced with drug-free medium. Control and Aza-treated cells were subcultured at equal densities at 1 and 5 days after the initial treatment, and proliferation was measured at the subsequent time point using a Coulter counter (Beckman Coulter, Fullerton Calif.). Cells were harvested 5 days after the initial treatment.
# Cells were harvested and lysed in 1 ml of TRIZOL reagent (5×10^6 cells/ml; Invitrogen). The lysates were vortexed thoroughly and incubated at room temperature for 2-3 minutes and extracted with 0.5 ml chloroform. The extract was mixed, incubated at room temperature for 5 minutes, and centrifuged at 16,000× g for 15 minutes at 4° C. The aqueous layer was collected, and an equal volume of isopropanol was added. Samples were mixed, incubated at room temperature for 10 minutes, and centrifuged at 16,000× g for 20 minutes at 4° C. The supernatant was removed, and the RNA pellet was washed with 1 ml of 70% ethanol, centrifuged at 16,000× g at 4° C., and resuspended in RNAse-free water. The concentration of the RNA was determined by measuring the optical density at 260 nm.
# Poly(A) RNA was prepared using an OLIGOTEX mRNA kit (Qiagen) with the following modifications: OLIGOTEX beads were washed in tubes instead of on spin columns, resuspended in elution buffer, and then loaded onto spin columns to recover mRNA. To obtain maximum yield, the mRNA was eluted twice.
# Each poly(A) RNA sample was reverse transcribed using MMLV reverse-transcriptase, 0.05 pg/μl oligo-d(T) primer (21mer), 1× first strand buffer, 0.03 units/ul RNAse inhibitor, 500 uM dAT?, 500 uM dGTP, 500 uM dTTP, 40 uM dCTP, and 40 uM either dCTP-Cy3 or dCTP-Cy5 (APB). The reverse transcription reaction was performed in a […] volume containing 200 ng poly(A) RNA using the GEMBRIGHT kit (Incyte Genomics). Specific control poly(A) RNAs (YCFRO6, YCFR45, YCFR67, YCFR85, YCFR43, YCFR22, YCFR23, YCFR25, YCFR44, YCFR26) were synthesized by in vitro transcription from non-coding yeast genomic DNA (W. Lei, unpublished). As quantitative controls, control mRNAs (YCFRO6, YCFR45, YCFR67, and YCFR85) at 0.002 ng, 0.02 ng, 0.2 ng, and 2 ng were diluted into reverse transcription reaction at ratios of 1:100,000, 1:10,000, 1:1000, 1:100 (w/w) to sample mRNA, respectively. To sample differential expression patterns, control mRNAs (YCFR43, YCFR22, YCFR23, YCFR25, YCFR44, YCFR26) were diluted into reverse transcription reaction at ratios of 1:3, 3:1, 1:10, 10:1, 1:25, 25:1 (w/w) to sample mRNA. Reactions were incubated at 37° C. for 2 hours, treated with […] of 0.5M sodium hydroxide, and incubated for 20 minutes at 85° C. to the stop the reaction and degrade the RNA.
# cDNAs were purified using two successive CHROMA SPIN 30 gel filtration spin columns (Clontech). Cy3- and Cy5-labeled reaction samples were combined as described below and ethanol precipitated using […] of 100% ethanol. The cDNAs were then dried to completion using a SpeedVAC system (Savant Instruments, Holbrook N.Y.) and resuspended in 14 μl 5× SSC, 0.2% SDS. […]
compound,measurement,setting,value
"Nc1ncn([C@H]2C[C@H](O)[C@@H](CO)O2)c(=O)n1 [Aza, 5-aza-2-deoxycytidine]",polyp formation,MIN mouse,reduced polyp formation
same,"differential expression, Clone ID 2416222, HT29 t/ Aza (5d)",HT29 cells; SEQ ID NO:1 hypothetical protein,−1.74
same,"differential expression, Clone ID 4103545, HT29 t/ Aza (5d)",HT29 cells; SEQ ID NO:2 Incyte Unique,−1.89
same,"differential expression, Clone ID 322569, HT29 t/ Aza (5d)",HT29 cells; SEQ ID NO:3 interferon-inducible protein,−4.17
same,"differential expression, Clone ID 5322134, HT29 t/ Aza (5d)","HT29 cells; SEQ ID NO:5 chromosome 6p21.3, HLA Class I region",−2.12
same,"differential expression, Clone ID 1698458, HT29 t/ Aza (5d)",HT29 cells; SEQ ID NO:6 unnamed protein product,−1.79
same,"differential expression, Clone ID 1871523, HT29 t/ Aza (5d)",HT29 cells; SEQ ID NO:7 KIAA1046 protein,−1.07
same,"differential expression, Clone ID 6024084, HT29 t/ Aza (5d)",HT29 cells; SEQ ID NO:8 putative tumor antigen,−2.79
same,"differential expression, Clone ID 3810006, HT29 t/ Aza (5d)",HT29 cells; SEQ ID NO:9 Incyte Unique,−0.92
same,"differential expression, Clone ID 4508879, HT29 t/ Aza (5d)",HT29 cells; SEQ ID NO:10 Incyte Unique,−0.85
same,"differential expression, Clone ID 4225379, HT29 t/ Aza (5d)",HT29 cells; SEQ ID NO:11 U 6 RNA,−0.85
same,"differential expression, Clone ID 3463713, HT29 t/ Aza (5d)",HT29 cells; SEQ ID NO:12 cDNA clone ZD16H10,−1.87
same,"differential expression, Clone ID 2998017, HT29 t/ Aza (5d)","HT29 cells; SEQ ID NO:13, 14 T-cell receptor gamma",−1.14
same,"differential expression, Clone ID 4318273, HT29 t/ Aza (5d)",HT29 cells; SEQ ID NO:15 pTR5 repetitive sequence,−1.58
same,"differential expression, Clone ID 1649414, HT29 t/ Aza (5d)",HT29 cells; SEQ ID NO:16 Hep27 protein,−1.20
same,"differential expression, Clone ID 1684742, HT29 t/ Aza (5d)",HT29 cells; SEQ ID NO:18 cDNA FLJ20222,−0.85
same,"differential expression, Clone ID 2825816, HT29 t/ Aza (5d)",HT29 cells; SEQ ID NO:19 KIAA0412,−1.84
same,"differential expression, Clone ID 2440943, HT29 t/ Aza (5d)",HT29 cells; SEQ ID NO:21 Incyte Unique,−1.07
same,"differential expression, Clone ID 1294339, HT29 t/ Aza (5d)",HT29 cells; SEQ ID NO:22 PDGF-B,−0.93
same,"differential expression, Clone ID 5104741, HT29 t/ Aza (5d)",HT29 cells; SEQ ID NO:23 cDNA FLJ10570,−0.93
same,"differential expression, Clone ID 1855389, HT29 t/ Aza (5d)",HT29 cells; SEQ ID NO:24 pTR7 repetitive sequence,−2.09
same,"differential expression, Clone ID 5207613, HT29 t/ Aza (5d)",HT29 cells; SEQ ID NO:25 chromosome 21 segment HS21C049,−2.10
same,"differential expression, Clone ID 3207902, HT29 t/ Aza (5d)",HT29 cells; SEQ ID NO:26 hypothetical protein,−1.29
same,"differential expression, Clone ID 4999769, HT29 t/ Aza (5d)",HT29 cells; SEQ ID NO:27 ZNFpT17,−1.26
same,"differential expression, Clone ID 408886, HT29 t/ Aza (5d)",HT29 cells; SEQ ID NO:28 transketolase,−1.31
same,"differential expression, Clone ID 4764233, HT29 t/ Aza (5d)",HT29 cells; SEQ ID NO:30 GAGE-8,−2.00
same,"differential expression, Clone ID 2511379, HT29 t/ Aza (5d)",HT29 cells; SEQ ID NO:31 GAGE-7B,−1.98
same,"differential expression, Clone ID 2471817, HT29 t/ Aza (5d)",HT29 cells; SEQ ID NO:33 cDNA clone YU62C03,−1.20
same,"differential expression, Clone ID 3333736, HT29 t/ Aza (5d)",HT29 cells; SEQ ID NO:34 MAGE-11 antigen,−1.38
same,"differential expression, Clone ID 1304365, HT29 t/ Aza (5d)",HT29 cells; SEQ ID NO:35 GAGE-8,−2.48
same,"differential expression, Clone ID 2657056, HT29 t/ Aza (5d)","HT29 cells; SEQ ID NO:37, 38 MAGE-4b antigen",−1.93
same,"differential expression, Clone ID 2507719, HT29 t/ Aza (5d)",HT29 cells; SEQ ID NO:39 MAGE-9 antigen,−2.32
same,"differential expression, Clone ID 4688, HT29 t/ Aza (5d)",HT29 cells; SEQ ID NO:41 MAGE-1,−2.03
same,"differential expression, Clone ID 2068708, HT29 t/ Aza (5d)",HT29 cells; SEQ ID NO:42 HM74,−1.17
same,"differential expression, Clone ID 23770, HT29 t/ Aza (5d)",HT29 cells; SEQ ID NO:43 1-8D,−2.99
same,"differential expression, Clone ID 1616783, HT29 t/ Aza (5d)",HT29 cells; SEQ ID NO:45 Incyte Unique,−0.84
same,"differential expression, Clone ID 820942, HT29 t/ Aza (5d)",HT29 cells; SEQ ID NO:46 cDNA FLJ20120,−0.58
same,"differential expression, Clone ID 891322, HT29 t/ Aza (5d)",HT29 cells; SEQ ID NO:47 Incyte Unique,0.00
same,"differential expression, Clone ID 2755836, HT29 t/ Aza (5d)",HT29 cells; SEQ ID NO:48 U5 A RNA,−0.68
same,"differential expression, Clone ID 1227521, HT29 t/ Aza (5d)",HT29 cells; SEQ ID NO:49 phospholipid scramblase 1,−2.10
same,"differential expression, Clone ID 2200842, HT29 t/ Aza (5d)",HT29 cells; SEQ ID NO:50 retinoid inducible gene 1,−1.74
same,"differential expression, Clone ID 2238363, HT29 t/ Aza (5d)",HT29 cells; SEQ ID NO:51 interferon induced,−1.85
same,"differential expression, Clone ID 1495382, HT29 t/ Aza (5d)",HT29 cells; SEQ ID NO:53 TRAIL,−1.07
same,"differential expression, Clone ID 1998269, HT29 t/ Aza (5d)",HT29 cells; SEQ ID NO:55 rhoB,−0.92
same,"differential expression, Clone ID 1919287, HT29 t/ Aza (5d)",HT29 cells; SEQ ID NO:56 hepatitis C-associated microtubular aggregate,−3.12
same,"differential expression, Clone ID 2637446, HT29 t/ Aza (5d)",HT29 cells; SEQ ID NO:57 HE4 protein,−1.07
same,"differential expression, Clone ID 1962141, HT29 t/ Aza (5d)",HT29 cells; SEQ ID NO:58 Similar to keratin 7,−0.43
same,"differential expression, Clone ID 4933404, HT29 t/ Aza (5d)",HT29 cells; SEQ ID NO:60 Incyte Unique,−0.32
same,"differential expression, Clone ID 2150288, HT29 t/ Aza (5d)",HT29 cells; SEQ ID NO:61 Keratin 8,−0.07
same,"differential expression, Clone ID 2697455, HT29 t/ Aza (5d)",HT29 cells; SEQ ID NO:61 Keratin 8,−0.32
